1 molecule from patent US6387954B1, “Alkenyl sulphonamide derivatives” (Eli Lilly and Company, priority 1998, dated 2002) can be followed below.

This test deals with T1, human GluR4B receptor (Homo sapiens, UniProt P48058).
T1 construct: expressed in transfected cells; host or cells: HEK293
Put plainly: potentiation of agonist-induced excitability of GluR4B expressed in HEK 293 cells. The following applies: human GluR4B receptor expressed in HEK 293 cells. It counts as cell-based. The source says: The ability of compounds of formula I to potentiate glutamate receptor-mediated response may be determined using fluorescent calcium indicator dyes (Molecular Probes, Eugene, Oregon, Fluo-3) and by measuring glutamate-evoked […] of calcium into GluR4 transfected HEK293 cells, as described in more detail below.
In one test, 96 well plates containing confluent monolayers of HEK cells stably expressing human GluR4B (obtained as described in European Patent Application Publication Number EP-A1-583917) are prepared. The tissue culture medium in the wells is then discarded, and the wells are each washed once with 200 μl of buffer (glucose, 10 mM, sodium chloride, 138 mM, magnesium chloride, 1 mM, potassium chloride, 5 mM, calcium chloride, 5 mM, N-[2-hydroxyethyl]-piperazine-N-[2-ethanesulfonic acid], 10 mM, to pH 7.1 to 7.3). […]
Each test is then performed as follows. […] A second fluorescent reading is taken after 5 minutes incubation. 15 μl of 400 μM glutamate solution is then added to each well (final glutamate concentration 100 μM), and a third reading is taken. The activities of test compounds and cyclothiazide solutions are determined by subtracting the second from the third reading (fluorescence due to addition of glutamate in the presence or absence of test compound or cyclothiazide) and are expressed relative to enhance fluorescence produced by 100 μM cyclothiazide.

T1 sequence (P48058 21-902): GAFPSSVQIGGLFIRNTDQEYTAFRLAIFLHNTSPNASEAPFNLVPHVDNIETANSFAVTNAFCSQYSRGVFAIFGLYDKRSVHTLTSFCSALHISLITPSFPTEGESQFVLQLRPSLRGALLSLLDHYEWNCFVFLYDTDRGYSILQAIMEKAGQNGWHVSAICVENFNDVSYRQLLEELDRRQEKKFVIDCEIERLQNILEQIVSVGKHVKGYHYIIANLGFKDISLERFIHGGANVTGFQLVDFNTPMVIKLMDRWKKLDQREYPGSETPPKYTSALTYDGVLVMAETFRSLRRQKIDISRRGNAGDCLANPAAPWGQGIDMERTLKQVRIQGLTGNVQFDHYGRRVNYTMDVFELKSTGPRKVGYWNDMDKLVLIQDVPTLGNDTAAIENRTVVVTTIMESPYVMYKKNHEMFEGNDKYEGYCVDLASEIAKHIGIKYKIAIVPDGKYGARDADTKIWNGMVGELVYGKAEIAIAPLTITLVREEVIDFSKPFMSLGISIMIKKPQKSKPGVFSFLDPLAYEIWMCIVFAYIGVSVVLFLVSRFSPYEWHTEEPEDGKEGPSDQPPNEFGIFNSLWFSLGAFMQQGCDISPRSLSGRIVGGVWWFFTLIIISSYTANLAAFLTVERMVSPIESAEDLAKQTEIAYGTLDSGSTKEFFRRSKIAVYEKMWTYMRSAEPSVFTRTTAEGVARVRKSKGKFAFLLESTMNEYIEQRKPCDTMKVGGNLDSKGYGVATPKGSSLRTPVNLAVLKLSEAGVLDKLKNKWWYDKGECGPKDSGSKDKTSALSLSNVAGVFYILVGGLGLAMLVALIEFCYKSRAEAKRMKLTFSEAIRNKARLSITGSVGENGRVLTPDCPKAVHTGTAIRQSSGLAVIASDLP

As for `NS(=O)(=O)c1cc2c(cc1Cl)NC(C1CC3C=CC1C3)NS2(=O)=O` (stereo not shown) [cyclothiazide], the “potentiation of agonist-induced excitability” value was “potentiate agonist-induced excitability”.
